In ChEMBL document CHEMBL5465560, “Selectivity Literature for EUbOPEN Chemogenomic Library” (2024):
Values belong to the compound of their own block, whether it stands above or below them.

Tests used:
[1] = target: T1, Mitogen-activated protein kinase kinase kinase kinase 3 (Homo sapiens) (UniProt Q8IVH8); settings: at 10 µM
T1 sequence (whole entry): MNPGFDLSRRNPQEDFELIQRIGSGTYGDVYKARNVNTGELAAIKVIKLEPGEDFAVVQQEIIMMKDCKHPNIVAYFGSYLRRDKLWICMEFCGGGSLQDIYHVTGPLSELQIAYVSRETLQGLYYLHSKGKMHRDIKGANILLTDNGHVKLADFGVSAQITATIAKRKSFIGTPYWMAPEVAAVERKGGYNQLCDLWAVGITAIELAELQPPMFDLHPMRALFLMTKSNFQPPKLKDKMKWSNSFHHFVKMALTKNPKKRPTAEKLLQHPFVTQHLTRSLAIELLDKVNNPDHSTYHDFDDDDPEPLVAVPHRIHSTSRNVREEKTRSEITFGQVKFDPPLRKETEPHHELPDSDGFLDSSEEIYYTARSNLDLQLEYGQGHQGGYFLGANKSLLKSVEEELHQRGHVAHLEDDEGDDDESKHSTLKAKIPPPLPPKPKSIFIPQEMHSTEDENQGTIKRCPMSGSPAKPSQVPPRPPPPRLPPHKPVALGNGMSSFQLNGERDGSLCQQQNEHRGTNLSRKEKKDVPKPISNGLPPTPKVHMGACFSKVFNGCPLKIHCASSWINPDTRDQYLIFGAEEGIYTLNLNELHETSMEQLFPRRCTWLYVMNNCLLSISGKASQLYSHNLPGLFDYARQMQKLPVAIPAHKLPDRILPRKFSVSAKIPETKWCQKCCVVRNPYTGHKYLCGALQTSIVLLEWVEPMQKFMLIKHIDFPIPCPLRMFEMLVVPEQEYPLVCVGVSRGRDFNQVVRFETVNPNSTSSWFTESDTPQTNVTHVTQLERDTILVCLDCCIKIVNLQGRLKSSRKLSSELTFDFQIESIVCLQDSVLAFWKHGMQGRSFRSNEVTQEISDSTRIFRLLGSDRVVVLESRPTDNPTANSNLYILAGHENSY

[2] = target: Serine/threonine-protein kinase pim-2 (Homo sapiens, UniProt Q9P1W9); experiment: Selectivity interaction (Kinase panel (literature)) EUB0001199aCl PIM2; settings: at 1 µM
Serine/threonine-protein kinase pim-2, sequence (Q9P1W9 whole entry, looked up): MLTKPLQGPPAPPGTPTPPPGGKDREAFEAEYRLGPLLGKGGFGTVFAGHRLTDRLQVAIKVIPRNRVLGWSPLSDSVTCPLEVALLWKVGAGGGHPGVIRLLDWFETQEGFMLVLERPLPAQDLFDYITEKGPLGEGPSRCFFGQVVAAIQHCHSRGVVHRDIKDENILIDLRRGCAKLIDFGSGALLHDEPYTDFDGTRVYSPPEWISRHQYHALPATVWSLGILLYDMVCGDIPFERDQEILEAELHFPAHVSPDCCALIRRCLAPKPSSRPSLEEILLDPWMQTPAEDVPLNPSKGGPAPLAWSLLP

[3] = target: RAF proto-oncogene serine/threonine-protein kinase (Homo sapiens) (UniProt P04049); experiment: Selectivity interaction (KinomeScan (DiscoverX)) EUB0000618a RAF1; settings: at 10 µM
RAF proto-oncogene serine/threonine-protein kinase (Homo sapiens), sequence (P04049 whole entry): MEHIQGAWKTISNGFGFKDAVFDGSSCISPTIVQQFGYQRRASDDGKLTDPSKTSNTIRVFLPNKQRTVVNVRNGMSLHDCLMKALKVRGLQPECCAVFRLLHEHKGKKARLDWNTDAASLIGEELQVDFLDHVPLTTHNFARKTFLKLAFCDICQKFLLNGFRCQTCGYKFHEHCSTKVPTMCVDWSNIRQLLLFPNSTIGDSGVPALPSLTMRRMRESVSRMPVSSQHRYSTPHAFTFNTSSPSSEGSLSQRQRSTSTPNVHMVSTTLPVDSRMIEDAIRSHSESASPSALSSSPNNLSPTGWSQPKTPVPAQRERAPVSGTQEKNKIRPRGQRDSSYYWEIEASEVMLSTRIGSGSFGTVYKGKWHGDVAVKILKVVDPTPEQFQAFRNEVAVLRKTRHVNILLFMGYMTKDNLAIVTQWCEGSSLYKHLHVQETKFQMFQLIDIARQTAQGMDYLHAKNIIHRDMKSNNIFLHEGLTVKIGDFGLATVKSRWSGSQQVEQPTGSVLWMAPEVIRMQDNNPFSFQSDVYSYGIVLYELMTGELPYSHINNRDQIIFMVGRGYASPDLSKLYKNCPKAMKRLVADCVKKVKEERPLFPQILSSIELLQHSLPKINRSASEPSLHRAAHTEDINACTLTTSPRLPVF

[4] = target: T2, Tyrosine-protein kinase JAK3 (Homo sapiens) (UniProt P52333); experiment: Selectivity interaction (KinomeScan (DiscoverX)) EUB0001619a JAK3; settings: at 1 µM
T2 sequence (whole entry): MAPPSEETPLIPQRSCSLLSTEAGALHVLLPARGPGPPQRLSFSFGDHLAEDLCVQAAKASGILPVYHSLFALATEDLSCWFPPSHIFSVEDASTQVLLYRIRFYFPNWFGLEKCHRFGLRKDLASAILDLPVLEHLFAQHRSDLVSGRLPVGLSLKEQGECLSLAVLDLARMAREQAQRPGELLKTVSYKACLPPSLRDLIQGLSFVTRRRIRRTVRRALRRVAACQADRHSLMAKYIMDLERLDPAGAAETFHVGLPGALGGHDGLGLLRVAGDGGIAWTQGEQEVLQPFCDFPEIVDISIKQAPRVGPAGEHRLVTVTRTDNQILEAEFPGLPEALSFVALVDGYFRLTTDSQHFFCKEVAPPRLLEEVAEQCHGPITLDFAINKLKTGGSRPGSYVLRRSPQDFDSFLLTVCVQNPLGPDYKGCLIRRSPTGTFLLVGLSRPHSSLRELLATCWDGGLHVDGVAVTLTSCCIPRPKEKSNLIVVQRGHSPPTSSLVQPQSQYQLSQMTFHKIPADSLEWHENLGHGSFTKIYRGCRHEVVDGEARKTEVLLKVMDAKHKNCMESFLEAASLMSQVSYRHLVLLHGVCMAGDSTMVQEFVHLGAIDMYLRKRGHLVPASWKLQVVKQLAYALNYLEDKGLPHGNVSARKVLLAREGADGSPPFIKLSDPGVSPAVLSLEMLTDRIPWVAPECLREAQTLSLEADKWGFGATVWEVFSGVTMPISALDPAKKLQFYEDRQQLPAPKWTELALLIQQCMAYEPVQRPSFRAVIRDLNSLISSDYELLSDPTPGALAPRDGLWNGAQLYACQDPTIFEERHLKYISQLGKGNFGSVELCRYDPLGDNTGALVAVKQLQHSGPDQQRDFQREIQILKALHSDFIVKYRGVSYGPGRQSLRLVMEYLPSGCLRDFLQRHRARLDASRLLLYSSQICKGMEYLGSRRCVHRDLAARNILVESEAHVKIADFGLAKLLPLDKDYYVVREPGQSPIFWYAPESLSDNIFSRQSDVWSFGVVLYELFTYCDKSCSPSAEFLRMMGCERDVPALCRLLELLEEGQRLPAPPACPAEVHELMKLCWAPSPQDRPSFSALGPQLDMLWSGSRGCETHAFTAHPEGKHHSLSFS

% of control [1]: 100%
SMILES: CCN(CC)CCCCNc1ncc2cc(-c3cc(OC)cc(OC)c3)c(NC(=O)NC(C)(C)C)nc2n1

% of inhibition [2]: -2%
SMILES: CN1Cc2nccc(-c3cn(C)nc3-c3ccc(F)cc3)c2C1=O

SMILES: O[C@H]1CC[C@H](Nc2ncc3nc(Nc4c(F)cc(F)cc4F)n([C@H]4CCOC4)c3n2)CC1
% of control [3]: 100%

SMILES: N#Cc1cccc(-c2c[nH]c3ncnc(N4CCOCC4)c23)c1
% of control [4]: 2.7%
